According to PubChem BioAssay (NCI):
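Results reflect a 48-hour exposure of cells in 96-well plates to compound at five concentrations. The concentration for 50% growth inhibition is given as GI50. TGI marks complete inhibition of growth.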

Columns and labels:
Experiment in all cases: NCI anticancer screen, dose series, 48 h
MCF7 breast = system: MCF7 breast
HOP-62 NSCLC = system: HOP-62 NSCLC
SK-MEL-5 melanoma = system: SK-MEL-5 melanoma
MDA-MB-435 = system: MDA-MB-435
HOP-92 NSCLC = system: HOP-92 NSCLC
MDA-MB-231 breast = system: MDA-MB-231 breast
UACC-62 melanoma = system: UACC-62 melanoma
SR leukemia = system: SR leukemia
U251 CNS = system: U251 CNS
KM12 colon = system: KM12 colon
EKVX NSCLC = system: EKVX NSCLC
LOX IMVI melanoma = system: LOX IMVI melanoma
SNB-19 CNS = system: SNB-19 CNS
SNB-75 CNS = system: SNB-75 CNS
NCI-H226 lung = system: NCI-H226 lung
OVCAR-3 ovarian = system: OVCAR-3 ovarian
DU-145 prostate = system: DU-145 prostate
HT29 colon = system: HT29 colon
MOLT-4 leukemia = system: MOLT-4 leukemia
PC-3 prostate = system: PC-3 prostate
NCI-H460 lung = system: NCI-H460 lung
SN12C renal = system: SN12C renal
CCRF-CEM leukemia = system: CCRF-CEM leukemia
SF-268 CNS = system: SF-268 CNS
RXF 393 renal = system: RXF 393 renal
SF-539 CNS = system: SF-539 CNS
M14 melanoma = system: M14 melanoma
HCT-116 colon = system: HCT-116 colon
CAKI-1 renal = system: CAKI-1 renal
OVCAR-5 ovarian = system: OVCAR-5 ovarian
A549 NSCLC = system: A549 NSCLC
OVCAR-8 ovarian = system: OVCAR-8 ovarian
TK-10 renal = system: TK-10 renal
HS 578T breast = system: HS 578T breast
BT-549 breast = system: BT-549 breast
HCC-2998 colon = system: HCC-2998 colon
UO-31 renal = system: UO-31 renal
NCI-H522 lung = system: NCI-H522 lung
HCT-15 colon = system: HCT-15 colon
SK-MEL-28 melanoma = system: SK-MEL-28 melanoma
COLO 205 colon = system: COLO 205 colon
OVCAR-4 ovarian = system: OVCAR-4 ovarian
SW-620 colon = system: SW-620 colon
NCI/ADR-RES ovarian = system: NCI/ADR-RES ovarian
MALME-3M melanoma = system: MALME-3M melanoma
K-562 leukemia = system: K-562 leukemia
ACHN renal = system: ACHN renal
A498 renal = system: A498 renal
IGROV1 ovarian = system: IGROV1 ovarian
NCI-H23 lung = system: NCI-H23 lung
SK-MEL-2 melanoma = system: SK-MEL-2 melanoma
T-47D breast = system: T-47D breast
UACC-257 melanoma = system: UACC-257 melanoma
SF-295 CNS = system: SF-295 CNS
RPMI-8226 leukemia = system: RPMI-8226 leukemia
HL-60(TB) leukemia = system: HL-60(TB) leukemia
SK-OV-3 ovarian = system: SK-OV-3 ovarian
786-0 renal = system: 786-0 renal

## CCN(CC)CCCC(C)Nc1c(-c2ccccc2)cnc2cc(Cl)ccc12 (stereo unspecified)
MCF7 breast
  GI50: 4.54 µM
  TGI: 17.7 µM
HOP-62 NSCLC
  GI50: 9.62 µM
  TGI: 22.9 µM
SK-MEL-5 melanoma
  GI50: 1.74 µM
  TGI: 3.64 µM
MDA-MB-435
  GI50: 2.24 µM
  TGI: 5.31 µM
HOP-92 NSCLC
  GI50: 4.65 µM
  TGI: 23.7 µM
MDA-MB-231 breast
  GI50: 3.5 µM
  TGI: 13.2 µM
UACC-62 melanoma
  GI50: 2.37 µM
  TGI: 6.26 µM
SR leukemia
  GI50: 3.14 µM
  TGI: > 24.6 µM
U251 CNS
  GI50: 6.84 µM
  TGI: 20.5 µM
KM12 colon
  GI50: 4.19 µM
  TGI: 16 µM
EKVX NSCLC
  GI50: 7.58 µM
  TGI: 40.7 µM
LOX IMVI melanoma
  GI50: 2.2 µM
  TGI: 5.84 µM
SNB-19 CNS
  GI50: 16.6 µM
  TGI: 57.7 µM
SNB-75 CNS
  GI50: 13.7 µM
  TGI: 45.3 µM
NCI-H226 lung
  GI50: 15.7 µM
  TGI: 31.6 µM
OVCAR-3 ovarian
  GI50: 12.5 µM
  TGI: 26.5 µM
DU-145 prostate
  GI50: 13 µM
  TGI: 31.3 µM
HT29 colon
  GI50: 2.74 µM
  TGI: 11.5 µM
MOLT-4 leukemia
  GI50: 4.38 µM
  TGI: 31.9 µM
PC-3 prostate
  GI50: 14.9 µM
  TGI: 60.4 µM
NCI-H460 lung
  GI50: 6.99 µM
  TGI: 19.8 µM
SN12C renal
  GI50: 8.9 µM
  TGI: 36.5 µM
CCRF-CEM leukemia
  GI50: 14.4 µM
  TGI: > 100 µM
SF-268 CNS
  GI50: 10.3 µM
  TGI: 27.3 µM
RXF 393 renal
  GI50: 3.36 µM
  TGI: 11.1 µM
SF-539 CNS
  GI50: 4.36 µM
  TGI: 16.3 µM
M14 melanoma
  GI50: 1.86 µM
  TGI: 3.44 µM
HCT-116 colon
  GI50: 3.72 µM
  TGI: 15.2 µM
CAKI-1 renal
  GI50: 2.12 µM
  TGI: 10.9 µM
OVCAR-5 ovarian
  GI50: 10.5 µM
  TGI: 27 µM
A549 NSCLC
  GI50: 8.2 µM
  TGI: 40.7 µM
OVCAR-8 ovarian
  GI50: 11.9 µM
  TGI: 32.3 µM
TK-10 renal
  GI50: 6.93 µM
  TGI: 17.5 µM
HS 578T breast
  GI50: 6.82 µM
  TGI: 24.7 µM
BT-549 breast
  GI50: 8.76 µM
  TGI: 22.3 µM
HCC-2998 colon
  GI50: 2.34 µM
  TGI: 5.62 µM
UO-31 renal
  GI50: 1.12 µM
  TGI: 8.83 µM
NCI-H522 lung
  GI50: 7.22 µM
  TGI: 19.2 µM
HCT-15 colon
  GI50: 3.62 µM
  TGI: 13.6 µM
SK-MEL-28 melanoma
  GI50: 1.82 µM
  TGI: 3.55 µM
COLO 205 colon
  GI50: 1.6 µM
  TGI: 3.23 µM
OVCAR-4 ovarian
  GI50: 10.3 µM
  TGI: 36.4 µM
SW-620 colon
  GI50: 9.04 µM
  TGI: 22.8 µM
NCI/ADR-RES ovarian
  GI50: 11.6 µM
  TGI: 28.3 µM
MALME-3M melanoma
  GI50: 1.93 µM
  TGI: 4.62 µM
K-562 leukemia
  GI50: 3.2 µM
  TGI: 32 µM
ACHN renal
  GI50: 13 µM
  TGI: 36.6 µM
A498 renal
  GI50: 2.71 µM
  TGI: 13.8 µM
IGROV1 ovarian
  GI50: 11.8 µM
  TGI: 31.4 µM
NCI-H23 lung
  GI50: 11 µM
  TGI: 28.5 µM
SK-MEL-2 melanoma
  GI50: 6.56 µM
  TGI: 13.8 µM
T-47D breast
  GI50: 4.44 µM
  TGI: 16.2 µM
UACC-257 melanoma
  GI50: 2.46 µM
  TGI: 6.28 µM
SF-295 CNS
  GI50: 2.78 µM
  TGI: 9 µM
RPMI-8226 leukemia
  GI50: 3.49 µM
  TGI: 17.1 µM
HL-60(TB) leukemia
  GI50: 5.29 µM
  TGI: 23.8 µM
SK-OV-3 ovarian
  GI50: 15.3 µM
  TGI: 33.5 µM
786-0 renal
  GI50: 6.38 µM
  TGI: 20.6 µM
